Experimental data from patent publication US20100234386A1, “QUINOXALINE DERIVATIVES AS PI3 KINASE INHIBITORS” (priority 2007, published 2010).

Target: T1, PI3Kα (Homo sapiens, UniProt P42336)
T1 construct: His
Assay: PI3K Alpha Leadseeker SPA Assay
Format: biochemical
Conditions: in at least one experimental run; read-out: IC50 value against PI3Kα
Excerpt: PI3K Alpha Leadseeker SPA Assay
SPA imaging beads are microspheres containing scintillant which emit light in the red region of the visible spectrum. As a result, these beads are ideally suited to use with a CCD imager such as the Viewlux. The Leadseeker beads used in this system are polystyrene beads that have been coupled with polyethyleneimine. When added to the assay mixture, the beads absorb both the substrate (PIP2) and product (PIP3). Adsorbed P^33-PIP3 will cause an increase in signal, measured as ADUs (analog to digital units). This protocol details the use of the PEI-PS Leadseeker beads for assays using His-p110/p85 PI3K alpha.
The compounds are serially diluted (3-fold in 100% DMSO) across the plate from column 1 to column 12 and column 13 to column 24 and leave column 6 and 18 containing only DMSO to yield 11 concentrations for each test compound.
The assay buffer contains MOPS (pH 6.5), CHAPS, and DTT. PI3K alpha and PIP2 (L-alpha-D-myo-Phosphatidylinositol 4,5-bisphosphate[PI(4,5)P2]3-O-phospho linked, D(+)-sn-1,2-di-O-octanoylglyceryl, CellSignals # 901) are mixed and incubated in the plate with compound for 30 min prior to starting the reaction with the addition of P^33-ATP and MgCl2 (reagents added using Zoom). […] PEI-PS Leadseeker beads in PBS/EDTA/CHAPS are added (by Multidrop) to quench the reaction, and the plates are allowed to incubate for at least one hour (typically overnight) before centrifugation. The signal is determined using a Viewlux detector and is then imported into curve fitting software (Activity Base) for construction of concentration response curves. The percent inhibition of activity is calculated relative to high controls (C1, 0.1 μl DMSO in column 6, rows A-P)) and low controls (C2, 5 μl of 40 uM PIP2 in buffer in column 18, rows A-P) using, 100*(1−(U1−C2)/(C1−C2)). The concentration of test compound yielding 50% inhibition is determined using the equation, y=((Vmax*x)/(K+x))+Y2, where “K” was equal to the […]. The IC50 values are converted to pIC50 values, i.e., −log IC50 in Molar concentration.

T1 sequence (P42336 whole entry, species assumed): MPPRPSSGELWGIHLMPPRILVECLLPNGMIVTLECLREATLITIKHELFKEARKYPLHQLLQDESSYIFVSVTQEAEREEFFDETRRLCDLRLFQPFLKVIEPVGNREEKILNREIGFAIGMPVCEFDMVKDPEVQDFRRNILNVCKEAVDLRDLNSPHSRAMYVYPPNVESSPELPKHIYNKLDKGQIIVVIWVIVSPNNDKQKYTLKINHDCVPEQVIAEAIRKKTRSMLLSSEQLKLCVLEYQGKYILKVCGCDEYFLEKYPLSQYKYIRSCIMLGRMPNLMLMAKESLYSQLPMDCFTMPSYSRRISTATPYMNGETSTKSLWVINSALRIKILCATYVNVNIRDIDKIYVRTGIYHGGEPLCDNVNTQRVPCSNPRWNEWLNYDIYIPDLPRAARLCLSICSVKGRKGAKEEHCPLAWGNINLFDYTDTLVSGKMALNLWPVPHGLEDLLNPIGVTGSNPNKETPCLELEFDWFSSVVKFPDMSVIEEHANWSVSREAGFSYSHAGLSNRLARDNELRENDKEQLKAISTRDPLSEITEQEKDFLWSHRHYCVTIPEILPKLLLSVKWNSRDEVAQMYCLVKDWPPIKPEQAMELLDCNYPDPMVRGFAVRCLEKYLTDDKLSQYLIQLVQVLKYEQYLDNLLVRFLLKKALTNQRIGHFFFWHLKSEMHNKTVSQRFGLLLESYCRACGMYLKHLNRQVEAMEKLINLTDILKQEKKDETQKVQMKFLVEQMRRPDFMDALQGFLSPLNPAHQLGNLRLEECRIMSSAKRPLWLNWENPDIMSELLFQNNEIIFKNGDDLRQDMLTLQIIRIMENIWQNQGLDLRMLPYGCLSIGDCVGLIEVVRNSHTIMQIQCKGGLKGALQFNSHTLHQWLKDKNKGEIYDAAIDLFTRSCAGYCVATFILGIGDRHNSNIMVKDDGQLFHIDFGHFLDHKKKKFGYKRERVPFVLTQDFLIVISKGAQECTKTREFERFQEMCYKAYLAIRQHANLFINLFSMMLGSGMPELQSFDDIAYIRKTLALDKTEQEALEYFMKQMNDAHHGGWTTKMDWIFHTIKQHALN
T1 sequence (P27986 whole entry partner, species assumed): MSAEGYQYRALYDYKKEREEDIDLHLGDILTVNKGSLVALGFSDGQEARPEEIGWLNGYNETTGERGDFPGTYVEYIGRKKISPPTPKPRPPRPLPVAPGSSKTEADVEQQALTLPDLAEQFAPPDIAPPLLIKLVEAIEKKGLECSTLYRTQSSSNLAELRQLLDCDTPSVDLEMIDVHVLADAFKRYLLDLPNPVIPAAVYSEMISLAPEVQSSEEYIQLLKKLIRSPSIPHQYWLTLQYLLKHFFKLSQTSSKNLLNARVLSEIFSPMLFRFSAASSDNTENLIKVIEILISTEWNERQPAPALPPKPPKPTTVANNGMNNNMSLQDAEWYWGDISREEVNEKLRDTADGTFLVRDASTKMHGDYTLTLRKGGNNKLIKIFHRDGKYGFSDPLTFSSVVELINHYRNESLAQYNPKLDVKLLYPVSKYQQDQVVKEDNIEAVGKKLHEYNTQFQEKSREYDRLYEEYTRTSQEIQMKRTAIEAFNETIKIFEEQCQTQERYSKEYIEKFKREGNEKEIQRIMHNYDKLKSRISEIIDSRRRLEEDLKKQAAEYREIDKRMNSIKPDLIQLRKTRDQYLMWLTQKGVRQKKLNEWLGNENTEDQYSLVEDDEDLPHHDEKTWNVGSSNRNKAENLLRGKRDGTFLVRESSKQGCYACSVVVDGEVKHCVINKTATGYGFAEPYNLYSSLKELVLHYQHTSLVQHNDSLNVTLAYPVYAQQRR

SMILES	IC50
COc1ccc(-c2ccc3ncc(N4CCOCC4)nc3c2)cn1 [Example 2]	100 nM
NS(=O)(=O)c1cncc(-c2ccc3ncc(-c4ccncc4)nc3c2)c1 [Example 70]	200 nM

The next molecules have a lower IC50 than those just listed; values first:

IC50	SMILES
50 nM	c1cc2cc(-c3ccc4ncc(N5CCOCC5)nc4c3)cnc2[nH]1 [Example 4]
8 nM	CCNc1cnc2ccc(-c3cnc(N)c(S(=O)(=O)N(C)C)c3)cc2n1 [Example 19]
5 nM	c1cc2ncc(N3CCOCC3)nc2cc1-c1cnc2[nH]ncc2c1 [Example 1, 2-(4-morpholinyl)-7-(1H-pyrazolo[3,4-b]pyridin-5-yl)quinoxaline]
